Reference: patent US20210017231A1, “ATP1A1-TARGETING POLYPEPTIDE AND USE THEREOF” (SUN YAT-SEN UNVIERSITY CANCER CENTER (SYSUCC), priority 2017, published 2021)
Bridge positions count the residues as written; N and C are the ends. Primed or numbered codes have the meaning given here. Ends that are not written are not given here. FITC′ = fluorescein isothiocyanate label; Cy5 = Cy5 dye label

Assays:
[1] = tested on: breast cancer MDA-MB-231 cells; assay: Polypeptide blocking experiment (ELISA on cells); assay type: cell-based, human; details: 5, 10, 20 μg/μl S3 polypeptide
Procedure: An enzyme-linked immunosorbent assay was used to detect the binding of S3 phage to breast cancer MDA-MB-231 cells, and then to detect whether […] could block the binding of […] to breast cancer MDA-MB-231 cells. The specific procedure was as follows:
2) digesting cells with trypsin, counting, and uniformly plating the cells in a 96-well plate, 1×10^4/well;
3) in the blocking experiment, adding 5, 10, 20 μg/μl S3 polypeptide and incubating at 37° C. for 1 h;
4) in the targeting experiment, adding phages in a concentration gradient of 1.0×10^9, 2.0×10^9, 4.0×10^9, 8.0×10^9, […] pfu/well, incubating at 37° C. for 2 h for binding; in the blocking experiment, adding 20 μg/μl of Biotin-S3 polypeptide;
5) discarding the cell incubation solution;
6) fixing the cells with 4% paraformaldehyde for 10 min;
7) washing five times with 0.1% PBST, 270 μl/well;
8) destroying the membranes with 0.1% Triton, and washing once with PBST, 270 μl/well;
9) blocking with 5% BSA for 30 min;
10) adding 1:1000 diluted anti-M13 conjucted HRP by 50 μl/well, and incubating at room temperature for 1 h;
11) washing five times with 0.1% PBST;
12) developing color with a TMB kit; and 13) reading at OD 450 nm by a microplate reader.

[2] = tested on: human breast cancer MDA-MB-231 cells; assay: Confocal laser scanning microscopy (immunofluorescence) of biotin peptide binding to cells; assay type: cell-based; details: MDA-MB-231 versus human normal breast MCF-10A cells
Excerpt: The binding of Biotin-C (Biotin-SEQ ID NO:2) and Biotin-S3 (Biotin-SEQ ID NO:1) polypeptide to human breast cancer MDA-MB-231 cells was detected by confocal laser scanning microscopy. Meanwhile, the inventors compared it with the binding of the above polypeptides to human normal breast MCF-10A cells. The particular experimental procedure was as follows:
1) digesting cells with trypsin and plating the cells in a 24-well plate provided with a slide, 1×10^5/well;
2) adding Biotin-C (Biotin-SEQ ID NO:2), Biotin-S3 (Biotin-SEQ ID NO:1) polypeptide to the cells, 200 μg/well, and incubating at 37° C. for 2 h;
3) discarding the cell incubation solution;
4) fixing the cells with 4% paraformaldehyde for 10 min;
5) washing five times with 0.1% PBST, 500 μl/well, and washing off unbound polypeptides;
6) destroying the membranes with 0.1% Triton, and washing once with PBST, 500 μl/well;
7) blocking with 5% BSA, 30 min;
8) adding anti-Biotin Streptavidin (1:1000) into the wells, and incubating at 4° C. for 12 h;
9) washing three times with 0.1% PBST, 5 min/time;
10) adding anti-Streptavidin conjugated FITC (1:1000) into the wells, and incubating at room temperature for 45 min;
11) washing three times with 0.1% PBST, 5 min/time;
12) staining cell membranes with WGA (1:1000), and incubating at room temperature for 10 min;
13) washing three times with 0.1% PBST, 5 min/time; […]

[3] = tested on: breast cancer MDA-MB-231 cells; assay: Flow cytometry binding of fluorescent peptide to cells; assay type: cell-based, human; details: 10 μM, on ice 20 min, FIG. 1C
Procedure: The binding of FITC-S3 (SEQ ID NO:3) fluorescent peptide to breast cancer MDA-MB-231 cells was detected by flow cytometry. The inventors first synthesized a fluorescent peptide in which the […] and Con peptide were conjugated to a fluorescent dye FITC, and then incubated FITC-S3 (SEQ ID NO:3) fluorescent peptide with the cells, and finally detected the binding thereof by flow cytometry. The particular experimental procedure was as follows:
1) digesting cells with trypsin, counting, and adjusting the concentration thereof to be 1.0×10^6 cells/tube, resuspending the cells with 100 μl serum-free 1640 medium;
2) adding FITC-C or […] in PBS (10 μM), and incubating the cells on ice for binding for 20 min;
3) washing three times with 0.1% PBST, 1 ml/time, and centrifuging at 400 g for 5 min;
4) resuspending the cells with 500 μl PBS; and
5) detecting by flow cytometry.

[4] = tested on: breast cancer MDA-MB-231 tumors; assay: Infrared fluorescent molecular imaging of breast cancer tumor-bearing mice; assay type: in vivo
Excerpt: Tumor-bearing mice were used for the infrared fluorescence molecular imaging experiment to detect the distribution of Cy5-S3 (Cy5-SEQ ID NO:1) fluorescent peptide in various organs and tumors of the tumor-bearing mice. The experimental procedure of the imaging experiment of small living animals was as follows: 1) taking out nine male NOD SCID mice of 4-week old; 2) digesting breast cancer MDA-MB-231 cells with trypsin, counting, and adjusting the concentration to be 5.0×10^7 cells/ml, resuspending the cells with 20% Matrigel DMEM, and injecting with 200 μl/mouse; 3) observing tumor formation for 1-2 weeks, measuring the sizes of the tumors, and randomizing the mice into three groups according to the sizes of the tumors, i.e. […] 4) dissolving 300 μg fluorescent peptides in 200 μl PBS, injecting the fluorescent peptides into the tail veins of the mice, and dynamically detecting the distribution of the fluorescent peptides in various organs and tumors of the nude mice by using a small living animal imaging instrument. 5) taking out every organ and tumor, homogenizing, measuring the fluorescence intensity of each organ and tumor, and making statistical analysis.

[5] = tested on: esophageal cancer KYSE30 tumor; assay: Infrared fluorescent molecular imaging of esophageal cancer tumor-bearing mice; assay type: in vivo; details: 48 hours after tail vein injection, FIGS. 2D, 2E
Excerpt: (§1) According to the above procedure, the Cy5-S3 (Cy5-SEQ ID NO:1) fluorescent peptides were applied in esophageal cancer KYSE30 tumor-bearing and nasopharyngeal carcinoma CNE2 mouse models, in order to detect whether Cy5-S3 (Cy5-SEQ ID NO:1) fluorescent peptide can be imaged with infrared fluorescent molecular imaging in other tumors.

[6] = tested on: nasopharyngeal carcinoma CNE2 tumor; assay: Infrared fluorescent molecular imaging of nasopharyngeal carcinoma mouse model; assay type: in vivo, mice; details: 48 hours after tail vein injection, FIG. 2F
Excerpt: as §1

Substance: CSISSLTHC [Peptide S3, ATP1A1-targeting polypeptide, SISSLTH motif with Cys at both terminals]
- blocking of the binding of Biotin-S3 polypeptide to breast cancer cells ([1]; 20 μg/μl Biotin-S3, FIG. 1B): can block the binding
- concentration dependence of the blocking effect ([1]; FIG. 1B): concentration-dependent
- targeting of breast cancer cells compared to normal breast MCF-10A cells [2]: obvious property of targeting breast cancer cells

Substance: CSISSLTHC-GGGS-FITC (CSISSLTHCGGGS-{FITC′}; disulfide 1-9 (inferred)) [FITC-S3, S3 peptide conjugated to fluorescent dye FITC]
- binding ability to breast cancer MDA-MB-231 cells versus FITC-control fluorescent peptide [3]: stronger than that of FITC-control fluorescent peptide

Substance: Cy5-CSISSLTHC (disulfide 1-9 (inferred)) [Cy5-S3, Cy5 fluorescent S3 peptide]
- content of fluorescent peptide in unit weight of the tumor versus other organs ([4]; 48 hours after tail vein injection, FIG. 2C): significantly higher than that in other organs
- enrichment in tumor by tissue analysis of dissected mice ([4]; mouse, in vivo): significantly enriched in the tumor
- enrichment in tumors by infrared imaging of the living mice ([4]; mouse, in vivo): obviously enriched in the tumors
- infrared fluorescent molecular imaging of esophageal cancer [5]: can also be used for the infrared fluorescent molecular imaging
- infrared fluorescent molecular imaging of nasopharyngeal carcinoma [6]: can also be used for the infrared fluorescent molecular imaging
